The values that follow come from US20260103461A1, “ESTROGEN RECEPTOR MODULATORS AND USES THEREOF” (Olema Pharmaceuticals, Inc., priority 2022, published 2026).

In the test the target is T1, estrogen receptor (Homo sapiens, UniProt P03372).
T1 construct: endogenous in cells; host or cells: ECC-1 cells
T1 sequence (P03372 1-595): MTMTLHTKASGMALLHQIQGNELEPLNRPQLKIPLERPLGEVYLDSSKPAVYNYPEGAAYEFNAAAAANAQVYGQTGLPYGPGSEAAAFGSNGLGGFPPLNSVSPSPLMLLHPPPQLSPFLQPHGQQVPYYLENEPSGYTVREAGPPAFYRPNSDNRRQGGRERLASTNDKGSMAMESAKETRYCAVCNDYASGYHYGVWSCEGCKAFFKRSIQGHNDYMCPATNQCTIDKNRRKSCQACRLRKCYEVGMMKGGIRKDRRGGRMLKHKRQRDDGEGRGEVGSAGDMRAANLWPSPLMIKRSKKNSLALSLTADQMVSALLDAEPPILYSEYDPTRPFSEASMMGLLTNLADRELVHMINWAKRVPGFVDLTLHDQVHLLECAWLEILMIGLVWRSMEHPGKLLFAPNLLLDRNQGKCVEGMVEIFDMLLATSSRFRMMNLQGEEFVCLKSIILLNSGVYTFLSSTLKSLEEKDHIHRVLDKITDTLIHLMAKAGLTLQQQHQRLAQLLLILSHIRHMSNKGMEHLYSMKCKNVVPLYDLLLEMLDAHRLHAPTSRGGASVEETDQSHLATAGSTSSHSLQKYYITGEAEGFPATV
Description: AP (alkaline phosphatase) assay in ECC-1 cells, agonist mode and antagonist mode. The test is classed as cell-based. To be noted: 3 days, absence of E2 (agonist mode) or 500 pM E2 (antagonist mode), AP activity normalized to 500 pM E2 alone. In outline: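 ECC-1 cells in hormone-depleted medium treated 3 days with compound alone (agonist mode) or with 500 pM E2 (antagonist mode). Alkaline phosphatase read by p-nitrophenyl phosphate hydrolysis, 40 min at 42° C, A405. Activity normalized to 500 pM E2 alone.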

On to `C[C@@H]1Cc2c([nH]c3ccccc23)[C@@H](c2ncc(O[C@@H]3CCN(CCCF)C3)s2)N1CC(C)(C)F` [Example I-11, 2-[(1S,3R)-2-(2-fluoro-2-methyl-propyl)-3-methyl-1,3,4,9-tetrahydropyrido[3,4-b]indol-1-yl]-5-[(3R)-1-(3-fluoropropyl)pyrrolidin-3-yl]oxy-thiazole], for which the “Activity (estrogen receptor modulation, agonism and antagonism)” value was “++ (estrogen receptor antagonism having (i) between 10% and 80% increase in the E2-normalized signal in the AP assay (agonist mode) and (ii) between 10% and 80% reduction in the E2-normalized signal in the AP assay (antagonist mode))”.
